Measurements published in patent US20260209200A1, “SALTS OF A DIHYDROOROTATE DEHYDROGENASE (DHOD) INHIBITOR” (priority 2022, published 2026).

What was measured:
[1] = in vivo; settings: rat
Procedure: (§1) Suspensions were stirred continuously prior to dose.
A total of 27 male SD rats were used (n=3). 27 male SD rats assigned to the study were divided into 9 groups and a single type of formulated PP-001 salt was orally administered to each group of rats at dose level of 4 mg/kg (2 mL/kg dose volume). The diet was provided ad libitum throughout the in-life portion of the study, except for the fasting prior to dosing through 4 hours post dose. Drinking water was available daily ad libitum to all animals.
(§2) Plasma samples were collected via the jugular vein cannulation into EDTA-K3 tubes at 0.25, 0.5, 1, 2, 4, 8, and 24 hours post-dose administration. For analytical batch of single oral administration, plasma concentrations of salts of PP-001 were determined using LC-MS/MS with a lower limit of quantitation of 1 ng/mL.
(§3) The pharmacokinetic parameters of PP-001 salts were determined by non-compartmental analysis using WinNonlin Version 8.0 (Pharsight, Mountain View, CA). The area under the curve from the time of dosing to the last measurable concentration, AUC0-t, was calculated by the linear trapezoidal rule. The area under the concentration-time curve extrapolated to infinity, AUCinf, was calculated using a regression of the natural logarithm of the concentration values versus sampling time of the terminal slope (Lambda Z, k). This value is also used to calculate half-life (T1/2) as follows:
(§4) The bioavailability was calculated as follows:
(§5) [formula] • wherein PO is an oral administration and IV is an intravenous injection.

[2] = Kinetic solubility of PP-001 salts in FaSSIF (HPLC); assay type: physicochemical; settings: for Appearance after stirring for 24 hours / Solubility at different time points, 0.5 h / Solubility at different time points, 1 h / Solubility at different time points, 2 h / Solubility at different time points, 24 h / Solubility at different time points, Initial / Final pH: 4 mL FaSSIF, 25° C., target 2 mg/mL
Procedure: Approximately 8 mg (calculated as freebase) of each salt was weighed out into each glass vial and then 4 ml of FaSSIF was added (target concentration was 2 mg/mL). The sample was kept stirring on a magnetic stirrer at a speed of I 00 RPM under 25° C. Then at the time points of initial, 0.5 hr, 1 hr, 2 hrs and 24 hrs, 0.5 mL of sample solution was transferred into 1.5 mL centrifugation tube and centrifuged at 12,000 RPM for 10 min. The supernatant was diluted by 50% ACN suitable and analyzed by HPLC.
An HPLC method of testing solubility was performed as follows in Table A: […]

[3] = Thermodynamic (equilibrium) solubility of PP-001 salts in FaSSIF; assay type: physicochemical; settings: for Thermodynamic solubility / Final pH / Appearance after stirring for 24 hours: 3 mL FaSSIF, 37° C.; for Thermodynamic solubility: saturated (target 10 mg/mL), time point 2 hrs, pH 6.4 to 6.5; for Final pH: pH tested after 24 hours; for Appearance after stirring for 24 hours: saturated
Procedure: As the solid was completely dissolved, add more sample to keep it saturated. […] Then at the time point 2 hrs, 0.5 mL of sample solution was transferred into 1.5 mL centrifugation tube and centrifuged at 12,000 RPM for 10 min. The supernatant was diluted by 50% ACN suitable and analyzed by HPLC. The pH was tested after 24 hours.

[4] = in vivo; settings: dog; for AUC0-∞ / AUCExtr / AUCinf/D / AUClast / Cmax / F, bioavailability (BA) in dogs / MRT0-∞ / T1/2 / Tmax: 4 mg/kg
Procedure: as §1
A total of 6 male beagle dogs were used (n=3). 6 male dogs assigned to the study were divided into 2 periods with 6 dogs per period and two dosing cycles separated by a 7-day washout period. The diet was provided ad libitum throughout the in-life portion of the study, except for the fasting prior to dosing through 4 hours post dose. Drinking water was available daily ad libitum to all animals. Formulated PP-001 salts were administered to male beagle dogs by oral administration at 4 mg/kg with dosed volume at 2 mL/kg.
as §2, with “of 10” for “of 1”
as §3, §4, §5

[5] = FaSSIF, comparison from Table 6

Row | Compound | Increase in oral BA vs free acid in rats ([1]; in vivo, po) | AUC0-∞ ([1]; in vivo, po, 4 mg/kg) | AUCExtr ([1]; in vivo, po, 4 mg/kg) | AUCinf/D ([1]; in vivo, po, 4 mg/kg) | AUClast ([1]; in vivo, po, 4 mg/kg) | Cmax ([1]; in vivo, po, 4 mg/kg) | F, bioavailability (BA) in rats ([1]; in vivo, po, 4 mg/kg) | MRT0-∞ ([1]; in vivo, po, 4 mg/kg) | Tmax ([1]; in vivo, po, 4 mg/kg) | T1/2 ([1]; in vivo, po, 4 mg/kg, pH 6.8) | Appearance after stirring for 24 hours [2] | Solubility at different time points, 0.5 h [2] | Solubility at different time points, 1 h [2] | Solubility at different time points, 2 h [2] | Solubility at different time points, Initial [2] | Thermodynamic solubility [3] | Solubility at different time points, 24 h [2] | Appearance after stirring for 24 hours [3] | Increase in oral BA vs free acid in dogs [4] | AUC0-∞ ([4]; po) | also measured
1 | [Mg] [Magnesium] | 1.7 | 23029 ng·h/mL | 0.510% | 5757 kg·ng·h/mL/mg | 22909 ng·h/mL | 3163 ng/mL | 13.2% | 4.87 h | 3.33 h | 3.01 h | suspension | 1520 µg/mL | 1510 µg/mL | 1440 µg/mL | 330 µg/mL |  |  |  |  |  | Solubility at different time points, 24 h ([2]; listed as Mg): 1010 µg/mL; Solubility at different time points, 24 h ([2]; listed as Mg cation): 1010 µg/mL
2 | CNC[C@H](O)[C@@H](O)[C@H](O)[C@H](O)CO [Meglumine] | 1.3 | 17083 ng·h/mL | 0.488% | 4271 kg·ng·h/mL/mg | 16995 ng·h/mL | 2217 ng/mL |  | 4.83 h | 3.00 h | 3.02 h |  | 2010 µg/mL | 1980 µg/mL | 2000 µg/mL | 1320 µg/mL | 5690 µg/mL | 1960 µg/mL |  |  |  | 
3 | Tromethamine | 1.6 | 21874 ng·h/mL | 0.930% | 5469 kg·ng·h/mL/mg | 21665 ng·h/mL | 2787 ng/mL | 12.5% | 5.38 h | 4.00 h | 3.39 h | clear solution | 1990 µg/mL | 1950 µg/mL | 1960 µg/mL | 1720 µg/mL | 3700 µg/mL | 2020 µg/mL | Suspension | 2.4 | 106528 ng·h/mL | Final pH [3]: 6.44; Thermodynamic solubility ([3]; listed as Tromethamine cation): 3700 µg/mL; AUCExtr ([4]; po): 2.03%; AUCinf/D ([4]; po): 26632 kg·ng·h/mL/mg; AUClast ([4]; po): 104381 ng·h/mL; Cmax ([4]; po): 20467 ng/mL; F, bioavailability (BA) in dogs ([4]; po): 54.4%; MRT0-∞ ([4]; po): 5.38 h; T1/2 ([4]; po): 4.13 h; Tmax ([4]; po): 2.67 h; Final pH [2]: 6.51
4 | [Ca] [Calcium] | 2.0 | 27157 ng·h/mL | 1.03% | 6789 kg·ng·h/mL/mg | 26827 ng·h/mL | 3280 ng/mL | 15.6% | 5.55 h | 4.00 h | 3.40 h | suspension | 750 µg/mL | 740 µg/mL | 710 µg/mL | 340 µg/mL |  |  |  | 3.0 | 133409 ng·h/mL | Increase in bioavailability in dogs ([4]; po): > 3 fold; AUCExtr ([4]; po): 1.16%; AUCinf/D ([4]; po): 33352 kg·ng·h/mL/mg; AUClast ([4]; po): 131819 ng·h/mL; Cmax ([4]; po): 22467 ng/mL; F, bioavailability (BA) in dogs ([4]; po): 68.1%; MRT0-∞ ([4]; po): 4.38 h; T1/2 ([4]; po): 3.76 h; Tmax ([4]; po): 1.67 h; Final pH [2]: 6.51; Solubility at different time points, 24 h ([2]; listed as Ca): 700 µg/mL; Solubility at different time points, 24 h ([2]; listed as Ca cation): 700 µg/mL; Solubility compared to PP-001 free acid [2, 5]: reduced solubility compared to PP-001 free acid
5 | Benzathine | 0.7 | 9593 ng·h/mL | 0.298% | 2398 kg·ng·h/mL/mg | 9559 ng·h/mL | 1495 ng/mL | 5.5% | 4.81 h | 3.33 h | 2.70 h |  |  |  |  |  | 30 µg/mL |  | Suspension |  |  | Final pH [3]: 6.43
6 | [K+] [Potassium] | 0.7 | 10112 ng·h/mL | 0.525% | 2528 kg·ng·h/mL/mg | 10049 ng·h/mL | 1144 ng/mL | 5.8% | 5.31 h | 4.00 h | 2.96 h | clear solution | 1700 µg/mL | 2180 µg/mL | 2190 µg/mL | 490 µg/mL | 2340 µg/mL | 2260 µg/mL | Suspension | 4.0 | 180263 ng·h/mL | Increased solubility vs PP-001 free acid [3, 5]: > 100 % increase; Increased bioavailability in dogs vs PP-001 free acid ([4]; po): > 400 % increase; AUCExtr ([4]; po): 1.59%; AUCinf/D ([4]; po): 45066 kg·ng·h/mL/mg; AUClast ([4]; po): 177228 ng·h/mL; Cmax ([4]; po): 33967 ng/mL; MRT0-∞ ([4]; po): 4.34 h; T1/2 ([4]; po): 4.15 h; Tmax ([4]; po): 1.17 h; Final pH [2]: 6.50
7 | NCCCC[C@H](N)C(=O)O [Lysine] |  |  |  |  |  |  |  |  |  |  |  | 2040 µg/mL | 2060 µg/mL | 2020 µg/mL | 1370 µg/mL | 4650 µg/mL | 2090 µg/mL | Suspension |  |  | AUC0-∞ ([1]; PO 4 mg/kg, mean n=3): 18430 ng·h/mL; AUCExtr ([1]; PO 4 mg/kg, mean n=3): 0.388%; AUCinf/D ([1]; PO 4 mg/kg, mean n=3): 4607 kg·ng·h/mL/mg; AUClast ([1]; PO 4 mg/kg, mean n=3): 18361 ng·h/mL; Cmax ([1]; PO 4 mg/kg, mean n=3): 2663 ng/mL; F, bioavailability (BA) in rats ([1]; PO 4 mg/kg, mean n=3): 10.6%; MRT0-∞ ([1]; PO 4 mg/kg, mean n=3): 4.97 h; Tmax ([1]; PO 4 mg/kg, mean n=3): 4.00 h; T1/2 ([1]; PO 4 mg/kg, suspension in pH 6.8 phosphate buffer, mean n=3): 2.85 h; Increase in oral BA vs free acid in rats ([1]; oral, ratio to PP-001 free acid): 1.4
8 | Zinc | 1.3 | 17122 ng·h/mL | 0.471% | 4281 kg·ng·h/mL/mg | 17033 ng·h/mL | 2490 ng/mL | 9.82% | 5.33 h | 4.00 h | 2.89 h |  |  |  |  |  |  |  |  |  |  | 
